Measurements from patent publication US6632616B2, “Compounds that selectively bind to expanded polyglutamine repeat domains and methods of use thereof” (Duke University, priority 2000, dated 2003).

What was measured:
polyglutamine = assay: In vitro polyglutamine aggregation, polyarginine transport peptide; format: biochemical
Q81-YFP = assay: Peptides added to transfected COS 7 cells expressing Q81-YFP: aggregation; format: cell-based; settings: peptide added to cells
From the text: (§1) Several proteins can ferry peptides or proteins into cells through the plasma membrane including HIV transactivator protein (TAT) (SEQ ID NO:37), antennapedia (SEQ ID NO:38), and herpes simplex virus type 1 protein 22 (SEQ ID NO:39) (Prochiantz, Curr Opin Cell Biol. 12:400-406 (2000)). […] The arginine-rich domains of these proteins are sufficient to transport some intact proteins even when fused to non-native proteins. The ability of polyglutamine-binding peptides fused to a TAT fragment to enter transfected COS 7 cells and inhibit polyglutamine aggregation and cell death was examined.

[1] = system: COS 7 cells expressing Q81-YFP; assay: Peptides added to transfected COS 7 cells expressing Q81-YFP: cell death; format: cell-based; settings: peptide added to cells
From the text: as §1

Chain of Q81-YFP (as listed by the source): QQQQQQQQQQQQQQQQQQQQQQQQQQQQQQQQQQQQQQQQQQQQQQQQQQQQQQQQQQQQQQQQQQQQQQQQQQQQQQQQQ

WKWWPGIFD-GGRRRRRRRR (WKWWPGIFDGGRRRRRRRR)
inhibits: inhibition of in vitro polyglutamine aggregation (polyglutamine) | effect on aggregation in cells (in words) (Q81-YFP) | effect on cell death (in words) [1]
